Results taken from article PMC2206373, “Identification of an altered peptide ligand based on the endogenously presented, rheumatoid arthritis-associated, human cartilage glycoprotein-39(263–275) epitope: an MHC anchor variant peptide for immune modulation” (Arthritis Research & Therapy, 2007).
Read-outs that look alike come from different tables or passages of the source. Non-standard residues stand in square brackets, D forms with d. Residues, ends and D or L forms follow the SMILES beside them. No end group written: not given here. Phe(4-I) = N[C@@H](Cc1ccc(I)cc1)C(=O)O; hPhe = N[C@@H](CCc1ccccc1)C(=O)O; 3Pal = N[C@@H](Cc1cccnc1)C(=O)O; 2Thi = N[C@@H](Cc1cccs1)C(=O)O; Cha = N[C@@H](CC1CCCCC1)C(=O)O

Legend:
HLA-DR4(B1*0401) = HLA-DR4(B1*0401) (Homo sapiens, UniProt P01903+P01911, A100K/A169T/F76Y/I96L/K127E/L162R/M171V/N62H/P40V/Q125Y/R42H/S133A/S149N/S66Y/V115G/V209L/W38E); assay: HLA-DR4 competition peptide binding assay; details: competition with biotinylated HA307-319 (Y309F) 50 nM, purified HLA-DR4 30 nM, pH 5, 48 h, room temperature
Method: HLA-DR bound marker peptide was separated from free marker peptide and the amount of bound marker peptide was detected and quantified by enhanced chemoluminescense. Inhibition curves were generated and the IC50 was determined. The concentration of competitor peptide inducing 50% inhibition of marker peptide binding was determined, and expressed as the 50% inhibitory concentration (IC50 in μM).

T cell hybridoma 5G11 = assay: T hybridoma 5G11 IL-2 response; type: cell-based, mouse; details: Figure 1; IL-2 production, DRB1*0401 BLCL as APC; duplicate or triplicate; background 29,203 counts; ±30% of WT response = super/partial agonist
Method: (§1) The T cell hybridomas, provided by G Sonderstrup (Stanford, CA, USA), were generated as described. In brief, human CD4, HLA-DRA*101/HLA-DRB*0401 triple transgenic (HLA-DR4trg) mice (devoid of I-Aβ) were immunized in the footpad with 50 μg of purified HC gp-39 mixed in incomplete Freund's adjuvant (IFA). Draining lymph nodes were isolated and T-cell hybridomas were generated by polyethylene glycol fusion of primed and in vitro antigen-restimulated lymph node cells with the AKR BW5147 fusion partner. Following fusion, growth-positive hybridoma wells were screened for reactivity to HC gp-39 and a set of 55 peptides (16 amino acids in length) covering the entire HC gp-39 sequence. HLA-DR4(B1*0401)-restricted hybridomas responsive to both the HC gp-39 protein and the immunodominant epitope 263–275 of HC gp-39 (for example, 5G11, 8B12, 14G11 and 20H5) were cloned, subcloned, characterised and selected for further study.
(§2) HC gp-39-specific IL-2 production by T hybridomas was measured in wells of round-bottomed microtiter plates. Hybridoma cells (2 to 5 × 10^4) and irradiated APC (0.5 to 1 × 10^5; 12,000 to 16,000 RAD) from the B lymphoblastoid cell line (BLCL) carrying the DRB1*0401 specificity were incubated in 150 μl volumes. Antigen was added in 50 μl volumes to duplicate wells. After 48 h, 100 μl of the culture supernatant was assayed for IL-2 production using a sandwich ELISA with Pharmingen antibodies specific for mouse IL-2. The antigen sensitivity of the hybridomas to both peptide and protein was determined (Figure 2). […] In later assays, an excess of peptide or APL (10 μg/ml), inducing maximal responses in all hybridomas, was tested.

T cell hybridoma 14G11 = assay: T hybridoma 14G11 IL-2 response; type: cell-based, mouse; details: Figure 1; IL-2 production, DRB1*0401 BLCL as APC; duplicate or triplicate; background 7,152 counts; ±30% of WT response = super/partial agonist
Method: as §1, §2

T cell hybridoma 8B12 = assay: T hybridoma 8B12 IL-2 response; type: cell-based, mouse; details: Figure 1; IL-2 production, DRB1*0401 BLCL as APC; duplicate or triplicate; background 16,288 counts; ±30% of WT response = super/partial agonist
Method: as §1, §2

[1] = Figure 1, read-out: DRB1*0401 binding IC50
[2] = Table 2, read-out: HLA-DR binding IC50
[3] = Table 1, geometric mean of two experiments, read-out: HLA-DR binding IC50

CC(C)C[C@H](NC(=O)[C@@H](NC(=O)[C@H](CCc1ccccc1)NC(=O)[C@H](CO)NC(=O)[C@@H](N)CCCNC(=N)N)[C@@H](C)O)C(=O)N[C@@H](C)C(=O)N[C@@H](CO)C(=O)N[C@@H](CO)C(=O)N[C@@H](CCC(=O)O)C(=O)N[C@H](C(=O)NCC(=O)N[C@H](C(=O)NCC(=O)O)C(C)C)[C@@H](C)O [Compound 24] (H-RS[hPhe]TLASSETGVG-OH)
IC50 (HLA-DR4(B1*0401); [1]): 15 nM

CC(C)C[C@H](NC(=O)[C@@H](NC(=O)[C@H](CC1CCCCC1)NC(=O)[C@H](CO)NC(=O)[C@@H](N)CCCNC(=N)N)[C@@H](C)O)C(=O)N[C@@H](C)C(=O)N[C@@H](CO)C(=O)N[C@@H](CO)C(=O)N[C@@H](CCC(=O)O)C(=O)N[C@H](C(=O)NCC(=O)N[C@H](C(=O)NCC(=O)O)C(C)C)[C@@H](C)O [Compound 25] (H-RS[Cha]TLASSETGVG-OH)
T hybridoma (SI) 5G11 (T cell hybridoma 5G11): 32 SI | IC50 (HLA-DR4(B1*0401); [1]): 7 nM | T hybridoma (SI) 14G11 (T cell hybridoma 14G11): 26 SI | T hybridoma (SI) 8B12 (T cell hybridoma 8B12): 18 SI

CC(C)C[C@H](NC(=O)[C@@H](NC(=O)[C@H](Cc1cccs1)NC(=O)[C@H](CO)NC(=O)[C@@H](N)CCCNC(=N)N)[C@@H](C)O)C(=O)N[C@@H](C)C(=O)N[C@@H](CO)C(=O)N[C@@H](CO)C(=O)N[C@@H](CCC(=O)O)C(=O)N[C@H](C(=O)NCC(=O)N[C@H](C(=O)NCC(=O)O)C(C)C)[C@@H](C)O [Compound 26] (H-RS[2Thi]TLASSETGVG-OH)
T hybridoma (SI) 5G11 (T cell hybridoma 5G11): 23 SI | IC50 (HLA-DR4(B1*0401); [1]): 9 nM | T hybridoma (SI) 14G11 (T cell hybridoma 14G11): 31 SI | T hybridoma (SI) 8B12 (T cell hybridoma 8B12): 18 SI

CC(C)C[C@H](NC(=O)[C@@H](NC(=O)[C@H](Cc1cccnc1)NC(=O)[C@H](CO)NC(=O)[C@@H](N)CCCNC(=N)N)[C@@H](C)O)C(=O)N[C@@H](C)C(=O)N[C@@H](CO)C(=O)N[C@@H](CO)C(=O)N[C@@H](CCC(=O)O)C(=O)N[C@H](C(=O)NCC(=O)N[C@H](C(=O)NCC(=O)O)C(C)C)[C@@H](C)O [Compound 29] (H-RS[3Pal]TLASSETGVG-OH)
T hybridoma (SI) 5G11 (T cell hybridoma 5G11): 23 SI | IC50 (HLA-DR4(B1*0401); [1]): 16 nM | T hybridoma (SI) 14G11 (T cell hybridoma 14G11): 44 SI | T hybridoma (SI) 8B12 (T cell hybridoma 8B12): 19 SI

CC(C)C[C@H](NC(=O)[C@@H](NC(=O)[C@H](Cc1ccc(I)cc1)NC(=O)[C@H](CO)NC(=O)[C@@H](N)CCCNC(=N)N)[C@@H](C)O)C(=O)N[C@@H](C)C(=O)N[C@@H](CO)C(=O)N[C@@H](CO)C(=O)N[C@@H](CCC(=O)O)C(=O)N[C@H](C(=O)NCC(=O)N[C@H](C(=O)NCC(=O)O)C(C)C)[C@@H](C)O [Compound 33] (H-RS[Phe(4-I)]TLASSETGVG-OH)
T hybridoma (SI) 5G11 (T cell hybridoma 5G11): 26 SI | IC50 (HLA-DR4(B1*0401); [1]): < 9 nM

ASFTLASSETGVG [Compound 10]
IC50 (HLA-DR4(B1*0401); [2]): 100 nM

FTLASSETGVG [Compound 6]
IC50 (HLA-DR4(B1*0401); [3]): 110 nM

RAFTLASSETGVG [Compound 11]
IC50 (HLA-DR4(B1*0401); [2]): 100 nM

RSFALASSETGVG [Compound 13]
IC50 (HLA-DR4(B1*0401); [2]): 60 nM

RSFTAASSETGVG [Compound 14]
IC50 (HLA-DR4(B1*0401); [2]): 80 nM

RSFTLAASETGVG [Compound 16]
IC50 (HLA-DR4(B1*0401); [2]): 50 nM

RSFTLASAETGVG [Compound 17]
IC50 (HLA-DR4(B1*0401); [2]): 50 nM

RSFTLASSATGVG [Compound 18]
IC50 (HLA-DR4(B1*0401); [2]): 40 nM

RSFTLASSEAGVG [Compound 19]
IC50 (HLA-DR4(B1*0401); [2]): 40 nM

RSFTLASSET [Compound 4]
IC50 (HLA-DR4(B1*0401); [3]): 7000 nM

RSFTLASSETAVG [Compound 20]
IC50 (HLA-DR4(B1*0401); [2]): 50 nM

RSFTLASSETG [Compound 3]
IC50 (HLA-DR4(B1*0401); [3]): 200 nM

RSFTLASSETGAG [Compound 21]
IC50 (HLA-DR4(B1*0401); [2]): 60 nM

RSFTLASSETGV [Compound 2]
IC50 (HLA-DR4(B1*0401); [3]): 90 nM

RSFTLASSETGVA [Compound 22]
IC50 (HLA-DR4(B1*0401); [2]): 50 nM

SFTLASSETGV [Compound 9]
IC50 (HLA-DR4(B1*0401); [3]): 120 nM

SFTLASSETGVG [Compound 5]
IC50 (HLA-DR4(B1*0401); [3]): 90 nM
